Test results: patent publication US6436960B1, “Farnesyl transferase inhibitors having a piperidine structure and process for preparation thereof” (LG Chemical Ltd., priority 1998, dated 2002)

Legend:
[1] = target: T1, Ras farnesyl transferase (Rattus norvegicus, UniProt Q02293+Q04631); test: in vivo (cellular) Ras farnesyl transferase inhibitory activity, Rat2 cells expressing C-Harvey-Ras; format: cell-based; conditions: Rat2 cell line expressing C-Harvey-Ras; concentration inhibiting 50% of farnesyl binding of Ras protein; read-out: H-Ras CIC50
T1 construct: endogenous in cells; host or cells: Rat2 fibroblasts transformed with C-Harvey-Ras, or with H-Ras carrying the K-Ras C-terminal polybasic lysine domain
Protocol: (§1) In the present experiment, Rat2 cell line which expresses C-Harvey-Ras protein having transforming activity and Rat2 cell line(Korean patent application No. 97-14409) which is transformed with fused protein of H-Ras substituted with polybasic lysine domain at C-terminus of K-Ras were used. The experiment was performed by the modified Declue's method(Declue. J. E. et al., Cancer Research, 1991, 51, 712). Hereinafter, the experimental method will be described in more detail.
(§2) 3×10^5 cells of transformed Rat2 fibroblast cell line were sprayed on 60 mm cell cultivation dish and cultivated for 48 hours in a cell incubator at 37° C. and after 50% or more of density was reached, it was treated with the test compounds. The compound according to the present invention dissolved in dimethylsulfoxide(DMSO) was used. 1% concentration of dimethylsulfoxide was used in both control and test groups. After 4 hours from the treatment with the compound, methionine labeled with 150 μCi of radioactive isotope [^35S] per 1 ml of medium was added and after cultivating for 20 hours, the cells were washed with physiological saline water. The cells were lysed using 1 ml of cold cell lysis buffer solution(50 mM of Sodium HEPES buffer solution containing 5 mM of magnesium chloride, 1 mM of DTT, 1% NP 40, 1 mM of EDTA, 1 mM of PMSF, 2 μM of leupeptin, 2 μM of pepstatin A and 2 μM of antipain) and the supernatant wherein the cells were lysed was obtained by high-velocity centrifugation of 12,000 g×5 minutes. The amount of radioisotope in the supernatant was measured and standardized to obtain a quantitative result in immunoprecipitation reaction and then, Y13-259, a monoclonal antiboby specifically binding to Ras protein(Furth, M. E. et al., J. Virol, 1982, 43, 294) was added and reacted for 15 hours at 4° C. Protein A(combined with goat anti-murine imunoglobulin antibody)-agarose suspension was added to the solution and reacted for 1 hour at 4° C. and then, to remove the unspecific binding product, immunoprecipitates were washed with a buffer solution (50 mM Tris chloride buffer solution containing 50 mM of sodium chloride, 0.5% of sodium dioxycholate, 0.5% of NP 40 and 0.1% of SDS). The precipitates were added to a buffer solution for electrophoresis and boiled and then, electrophoresis was performed using 13.5% of SDS polyacrylamide gel. After electrophoresis, the gel was fixed and dried. Then, the gel was exposed to X-ray film, developed and printed. From the result of the experiment, intensities of band of protein combined with or without farnesyl of Ras protein were measured, and the concentration of the test compound inhibiting 50% of farnesyl binding was defined as CIC50, an in vivo Ras farnesyl transferase inhibitory activity.

[2] = target: T2, Ras farnesyl transferase (Homo sapiens, UniProt P49354+P49356); test: in vitro inhibitory activity for Ras farnesyl transferase, H-Ras substrate; format: biochemical; conditions: recombinant Ras farnesyl transferase, H-Ras substrate, tritium-farnesylpyrophosphate, 30 minutes at 37° C.; read-out: H-Ras IC50
T2 construct: made in house
Protocol: (§3) In the present experiment, Ras farnesyl transferase produced by genetic recombination techniques according to the improved Pompliano's method (Pompliano et al., Biochemistry, 1992, 31, 3800) was used, and Ras substrate(Ras-CVLS) protein described in Korean Patent Appln. No. 97-14409 was used after it has been purified according to the known method(see, Chung et al., Biochimica et Biophysica Acta, 1992, 278, 1129).
(§4) The enzyme reaction was performed in 50 μl of 50 mM Soduam HEPES buffer solution containing 25 mM of potassium chloride, 25 mM of magnesium chloride, 10 mM of DTT and 50 μM of zinc chloride. 1.5 μM of Ras substrate protein, 0.15 μM of tritium-farnesylpyrophosphate and 4.5 nM of farnesyl transferase were used.
(§5) More specifically, in the initial step, farnesyl transferase was added to the above buffer solution, reaction was maintained for 30 minutes at 37° C. and then the reaction was stopped by adding 1 ml of ethanol solution containing 1M HCl. The formed precipitates were adsorbed to GF/B filter using Hopper harvestor(Hopper #FH 225V) for filter-binding, washed with ethanol, and then radioactivity of the dried filter was measured using LKB β counter. Enzyme titer was measured in the unsaturated state of substrate where the concentrations of Ras substrate protein and farnesyl transferase have quantitative relationship. The compound according to the present invention dissolved in dimethyl sulfoxide(DMSO) was added to the reaction solution in an amount of less than 5% of the total reaction solution, and then the enzyme inhibitory activity thereof was measured. The enzyme inhibitory activity was represented by percentage of the amount of farnesyl incorporated into the Ras substrate protein in the presence of the test compound to that in the absence of the test compound. IC50 of the test compound was defined as the concentration at which 50% of the enzyme activity was inhibited.

[3] = target: T2, Ras farnesyl transferase; test: in vitro inhibitory activity for Ras farnesyl transferase, K-Ras substrate; format: biochemical; conditions: recombinant Ras farnesyl transferase, K-Ras substrate; read-out: K-Ras IC50
Protocol: as §3, with “and Ras substrate(Ras-CVLS) protein described in Korean Patent” left out
as §4, §5

[4] = target: T1, Ras farnesyl transferase; test: in vivo (cellular) Ras farnesyl transferase inhibitory activity, Rat2 cells transformed with H-Ras fused with polybasic lysine domain of K-Ras; format: cell-based; conditions: Rat2 cell line transformed with H-Ras substituted with polybasic lysine domain at C-terminus of K-Ras; concentration inhibiting 50% of farnesyl binding; read-out: K-Ras CIC50
Protocol: as §1, §2

SMILES	IC50 [1] [nM]	IC50 [2] [nM]	IC50 [3] [nM]	IC50 [4] [µM]
CC(=O)N1CCC(Cn2cncc2Cn2cc(C(=O)N3CCN(C)CC3)c(-c3cccc4ccccc34)c2)CC1 [Compound 42, 1-[1-(1-Acetylpiperidin-4-yl)methyl-1H-imidazol-5-yl]methyl-3-(4-methylpiperazin-1-yl)carbonyl-4-(naphthalen-1-yl)-1H-pyrrole]	25	1.2	6	10 to 50
COCCN(C)C(=O)c1cn(Cc2cncn2CC2CCNCC2)cc1-c1cccc2ccccc12 [Compound 6, 3-[N-(2-Methoxyethyl)-N-methyl]carbamoyl-4-(naphthalen-1-yl)-1-[1-(piperidin-4-ylmethyl)-1H-imidazol-5-ylmethyl]-1H-pyrrole]	10 to 100	8	10 to 1000	1 to 10
CN1CCN(C(=O)c2cn(Cc3cncn3CC3CCN(C(=O)COc4ccccc4)CC3)cc2-c2cccc3ccccc23)CC1 [Compound 44, 3-(4-Methylpiperazin-1-yl)carbonyl-4-(naphthalen-1-yl)-1-[1-(1-phenoxyacetylpiperidin-4-yl)methyl-1H-imidazol-5-yl]methyl-1H-pyrrole]	50	2	11	10 to 50
CC(=O)N1CCC(Cn2cncc2Cn2cc(C(=O)N3CCOCC3)c(-c3cccc4ccccc34)c2)CC1 [Compound 3, 1-[1-(1-Acetylpiperidin-4-ylmethyl)-1H-imidazol-5-ylmethyl]-3-(morpholinyl)carbonyl-4-(naphthalen-1-yl)-1H-pyrrole]	10 to 100	1	16	10 to 50
COCCN(C)C(=O)c1cn(Cc2cncn2CC2CCN(C(=O)OC)CC2)cc1-c1cccc2ccccc12 [Compound 17, 1-[1-(1-Methoxycarbonyl-piperidin-4-ylmethyl)-1H-imidazol-5-ylmethyl]-3[N-(2-methoxyethyl)-N-methyl]carbamoyl-4-(naphthalen-1-yl)-1H-pyrrole]	10 to 100	1 to 10	10 to 1000	10 to 100
COCCN(C)C(=O)c1cn(Cc2cncn2CC2CCN(C(=O)/C=C/c3ccccc3)CC2)cc1-c1cccc2ccccc12 [Compound 28]	10 to 100	12	8	1 to 10
COCCN(C)C(=O)c1cn(Cc2cncn2CC2CCN(C(=O)Cc3ccc(-c4ccccc4)cc3)CC2)cc1-c1cccc2ccccc12 [Compound 16, 1-{1-[1-(4-Biphenylacetyl)-piperidin-4-ylmethyl]-1H-imidazol-5-ylmethyl}-3-[N-(2-methoxyethyl)-N-methyl]carbamoyl-4-(naphthalen-1-yl)-1H-pyrrole]	10 to 100	1 to 10	10 to 1000	1 to 50
COCCN(C)C(=O)c1cn(Cc2cncn2CC2CCN(C(=O)OCc3csc(C(C)C)n3)CC2)cc1-c1cccc2ccccc12 [Compound 26]	10 to 100	4	10 to 100	10 to 50
CC(C)CCOC(=O)N1CCC(Cn2cncc2Cn2cc(C(=O)N3CCN(C)CC3)c(-c3cccc4ccccc34)c2)CC1 [Compound 46]	25	2.2	16	10 to 50
O=C(c1cn(Cc2cncn2CC2CCNCC2)cc1-c1cccc2ccccc12)N1CCOCC1 [Compound 2]	100	9	6000	10 to 100
COCCN(C)C(=O)c1cn(Cc2cncn2CC2CCN(C(=O)N3CCc4ccccc4C3)CC2)cc1-c1cccc2ccccc12 [Compound 32, 3-[N-(2-Methoxyethyl)N-methyl]carbamoyl-4-(naphthalen-1-yl)-1-{1-[1-(1,2,3,4-tetrahydroisoquinolin-2-ylcarbonyl)piperidin-4-ylmethyl]-1H-imidazol-5-ylmethyl}-1H-pyrrole]	10 to 100	2	12	1 to 10
CN1CCN(C(=O)c2cn(Cc3cncn3CC3CCN(C(=O)CCc4ccccc4)CC3)cc2-c2cccc3ccccc23)CC1 [Compound 43, 3-(4-Methylpiperazin-1-yl)carbonyl-4-(naphthalen-1-yl)-1-{1-[1-(2-phenylethylcarbonyl)-piperidin-4-yl]methyl-1H-imidazol-5-yl}methyl-1H-pyrrole]	50	2	10	10 to 50
COCCN(C)C(=O)c1cn(Cc2cncn2CC2CCN(C(=O)CCc3ccccc3)CC2)cc1-c1cccc2ccccc12 [Compound 15, 3-[N-(2-Methoxyethyl)-N-methyl]carbamoyl-4-(naphthalen-1-yl)-1-{1-[1-(2-phenylethylcarbonyl)-piperidin-4-ylmethyl]-1H-imidazol-5-ylmethyl}-1H-pyrrole]	10 to 100	1	10 to 1000	1 to 50
COCCN(C)C(=O)c1cn(Cc2cncn2CC2CCN(C(=O)COc3ccccc3)CC2)cc1-c1cccc2ccccc12 [Compound 14, 3-[N-(2-Methoxyethyl)-N-methyl]carbamoyl-4-(naphthalen-1-yl)-1-[1-(1-phenoxyacetyl-piperidin-4-ylmethyl)-1H-imidazol-5-ylmethyl]-1H-pyrrole]	10 to 100	2.1	10 to 1000	1 to 50
COCCN(C)C(=O)c1cn(Cc2cncn2CC2CCN(C(=O)OCc3ccc4ccccc4c3)CC2)cc1-c1cccc2ccccc12 [Compound 20]	10	6	10	1 to 10
COCCN(C)C(=O)c1cn(Cc2cncn2CC2CCN(C(=O)Cc3ccc(OC)cc3)CC2)cc1-c1cccc2ccccc12 [Compound 13, 1-{1-[1-(4-Methoxybenzylcarbonyl)-piperidin-4-ylmethyl]-1H-imidazol-5-ylmethyl}-3-[N-(2-methoxyethyl)-N-methyl]carbamoyl-4-(naphthalen-1-yl)-1H-pyrrole]	10 to 100	1 to 10	10 to 1000	1 to 50
